The test system of this test is A. baumannii ATCC 17978. As to the kind of experiment: Antimicrobial susceptibility testing: 50% growth inhibitory concentration (IC50) determination in Iso-Sensitest broth. The test is classed as cell-based. The following applies: Acinetobacter baumannii; A. baumannii strain ATCC17978; Iso-Sensitest medium; OD 600 nm over 16 h; 35±2° C.; read-out: IC50 ATCC17978 (50% growth inhibition concentration). On the procedure: Antimicrobial Susceptibility Testing: 50% Growth Inhibitory Concentration (IC50) Determination The in vitro antimicrobial activity of the compounds was alternatively determined according to the following procedure: The assay used a 10-points Iso-Sensitest broth medium to measure quantitatively the in vitro activity of the compounds against A. baumannii ATCC 17978. Stock compounds in DMSO were serially twofold diluted (e.g. range from 10 to 0.02 μM final concentration) in 384 wells microtiter plates and inoculated with 49 μl the bacterial suspension in Iso-Sensitest medium to have a final cell concentration of ˜5×10^(5) CFU/ml in a final volume/well of […] Microtiter plates were incubated at 35±2° C. Bacterial cell growth was determined by the measurement of optical density at λ=600 nm each 20 minutes over a time course of 16 h. Growth inhibition was calculated during the logarithmic growth of the bacterial cells by determination of the concentration inhibiting 50% (IC50) and 90% (IC90) of the growth. Table 1 provides the 50% growth inhibitory concentrations (IC50) in micromoles per liter of the compounds of present invention obtained against the A. baumannnii strain ATCC17978.

Turning to `CC(=O)NS(=O)(=O)c1ccc(-c2ccc(Cl)c3c2CNC(=O)[C@H](Cc2c[nH]c4ccccc24)N(C)C(=O)[C@H](CCCCNCC(F)F)NC(=O)[C@H](CCCO)NCc2cccnc2S3)cc1` [Example 17.00, N-[4-[(11S,14S,7S)-25-Chloro-14-[4-(2,2-difluoroethylamino)butyl]-11-(3-hydroxypropyl)-17-(1H-indol-3-ylmethyl)-16-methyl-12,15,18-trioxo-2-thia-4,10,13,16,19-pentazatricyclo[19.4.0.03,8]pentacosa-1(21),3,5,7,22,24-hexaen-22-yl]phenyl]sulfonylacetamide], the IC50 stood at 5220 nM.

For the compound `CNCCCC[C@@H]1NC(=O)[C@H](CCCO)NCc2cccnc2Sc2c(Cl)ccc(-c3ccc(S(=O)(=O)NC(C)=O)cc3)c2CNC(=O)[C@H](Cc2c[nH]c3ccccc23)N(C)C1=O` [Example 18.00, N-[4-[(11S,14S,17S)-25-Chloro-11-(3-hydroxypropyl)-17-(1H-indol-3-ylmethyl)-16-methyl-14-[4-(methylamino)butyl]-12,15,18-trioxo-2-thia-4,10,13,16,19-pentazatricyclo[19.4.0.03,8]pentacosa-1(21),3,5,7,22,24-hexaen-22-yl]phenyl]sulfonylacetamide], the IC50 stood at 630 nM. `CN1C(=O)[C@H](CCCCNCC(F)F)NC(=O)[C@H](CCCN)NCc2cccnc2Sc2c(Cl)ccc(-c3cnc(O)nc3)c2CNC(=O)[C@@H]1Cc1c[nH]c2ccccc12` [Example 19.00, (11S,14S,17S)-11-(3-Aminopropyl)-25-chloro-14-[4-(2,2-difluoroethylamino)butyl]-22-(2-hydroxypyrimidin-5-yl)-17-(1H-indol-3-ylmethyl)-16-methyl-2-thia-4,10,13,16,19-pentazatricyclo[19.4.0.03,8]pentacosa-1(21),3,5,7,22,24-hexaene-12,15,18-trione]: the IC50 amounted to 300 nM. Take `CC(=O)NS(=O)(=O)c1ccc(-c2ccc(Cl)c3c2CNC(=O)[C@H](Cc2c[nH]c4ccccc24)N(C)C(=O)[C@H](CCCCN)NC(=O)[C@H](CCCNCCC(=O)O)NCc2cccnc2S3)cc1` [Example 20.00, 3-[3-[(11S,14S,17S)-22-[4-(Acetylsulfamoyl)phenyl]-14-(4-aminobutyl)-25-chloro-17-(H-indol-3-ylmethyl)-16-methyl-12,15,18-trioxo-2-thia-4,10,13,16,19-pentazatricyclo[19.4.0.03,8]pentacosa-1(21),3,5,7,22,24-hexaen-11-yl]propylamino]propanoic acid]: the IC50 was 520 nM. For `CN1C(=O)[C@H](CCCCN)NC(=O)[C@H](CCCN)NCc2cccnc2Sc2c(Cl)cc(-c3nnn[nH]3)cc2CNC(=O)[C@@H]1Cc1c[nH]c2ccccc12` [Example 21.00, (11S,14S,17S)-14-(4-Aminobutyl)-11-(3-aminopropyl)-25-chloro-17-(1H-indol-3-ylmethyl)-16-methyl-23-(1H-tetrazol-5-yl)-2-thia-4,10,13,16,19-pentazatricyclo[19.4.0.03,8]pentacosa-1(21),3,5,7,22,24-hexaene-12,15,18-trione], the IC50 was found to be 10000 nM. Consider `CN1C(=O)[C@H](CCCCN)NC(=O)[C@H](CCCN)NCc2cccnc2Sc2c(Cl)cc(-c3cn[nH]n3)cc2CNC(=O)[C@@H]1Cc1c[nH]c2ccccc12` [Example 22.00, (11S,14S,17S)-14-(4-Aminobutyl)-1-(3-aminopropyl)-25-chloro-17-(1H-indol-3-ylmethyl)-16-methyl-23-(1H-triazol-5-yl)-2-thia-4,10,13,16,19-pentazatricyclo[19.4.0.03,8]pentacosa-1(21),3,5,7,22,24-hexaene-12,15,18-trione], for which the IC50 amounted to 180 nM.

(Values after patent US11505573B2, “Peptide macrocycles against Acinetobacter baumannii” (Hoffmann-La Roche Inc., priority 2018, dated 2022).)
